From patent US5962531A, “5-aroylnaphthalene derivatives as anti-inflammatory agents” (Syntex (U.S.A.) Inc., priority 1998, dated 1999)

Columns and labels:
PGE2 = assay: Inhibition of eicosanoid (prostaglandin E2) synthesis in vivo, carrageenan air-pouch model in rats; design: species or system rat; conditions: oral, male rats
Description: In this assay, an air-pouch is created in the rat and the PGE2 levels in the air-pouch exudate are measured by enzyme immunoassay. Briefly, male rats were anesthetized using a 60:40 CO2 :O2 mixture and subsequently injected subcutaneously with 20 ml of sterilized air, under aseptic conditions, in the proximal area of the dorsum. This injection of sterile air causes the creation of a subcutaneous "air pouch". The next day, a further 10 ml of sterile air was injected into the previously formed pouch using the same technique. […] Control rats received vehicle alone. After 30 minutes, 5 ml of a 0.5% solution of carrageenan (Sigma, Lambda Type IV) was injected into the air pouch. The rats were euthanized 3 or 6 h after the compound administration. […] The total exudate volume was recorded, and the samples were analyzed for PGE2 and 6-keto PGF1 by ELISA (Titerzyme®, PerSeptive Diagnostics, Boston, Mass.) and TxB2 by radioimmuno assay (New England Nuclear Research, Boston, Mass., Catalog No. NEK-037), according to the manufacturer's directions.
The mean concentrations of PGE2 were calculated for each group. The anti-inflammatory activity of test materials is expressed as the percent inhibition of PGE2 formation in the test group relative to the control group.

Alzheimer's patients = conditions: Rogers, J., et. al., Neurology, 43, 1609, (1993); cited from earlier work
COX I = target: T1, COX I (Homo sapiens, UniProt P23219); assay: Inhibition of COX I in vitro (radiometric assay, partially purified enzyme); format: biochemical
T1 construct: made in house; baculovirus-infected insect cells according to the cited Barnett et al. 1994 (own knowledge)
Description: (§1) The COX I and COX II inhibitory activity of compounds of this invention in vitro was determined using partially purified COX I and COX II enzymes, prepared as described in J. Barnett et. al., Biochim. Biophys.
(§2) COX I and COX II samples were diluted with Tris-HCl buffer (SOmM Tris-HCl, pH 7.9) containing 2 mM EDTA and 10% glycerol and reconstituted by incubating first with 2 mM phenol for 5 minutes and then with 1 micromolar hematin for an additional 5 minutes. 125 μl of the reconstituted COX I or COX II enzyme were preincubated for 10 minutes at room temperature in a shaking water bath with the compounds of the invention dissolved in 2-15 μl of DMSO or the carrier vehicles (control samples). The enzyme reaction was initiated by adding 25 μl of 1-[14 C]arachidonic acid (80,000-100,000 cpm/tube; 20 micromolar final concentration) and the reaction was allowed to continue for an additional 45 seconds. The reaction was terminated by adding 100 μl of 2N HCl and 750 μl water. An aliquot (950 μl) of the reaction mixture was loaded onto a 1 ml C18 Sep-Pak column (J. T. Baker, Phillipsburg, N.J.) which had been previously washed with 2-3 ml methanol and equilibrated with 5-6 ml distilled water. Oxygenated products were quantitatively eluted with 3 ml of acetonitrile/water/acetic acid (50:50:0.1, v/v) and the radioactivity in the eluate determined in a scintillation counter.

COX II = target: T2, COX II (Homo sapiens, UniProt P35354); assay: Inhibition of COX II in vitro (radiometric assay, partially purified enzyme); format: biochemical
T2 construct: made in house; baculovirus-infected insect cells according to the cited Barnett et al. 1994 (own knowledge)
T2 sequence (P35354 18-604): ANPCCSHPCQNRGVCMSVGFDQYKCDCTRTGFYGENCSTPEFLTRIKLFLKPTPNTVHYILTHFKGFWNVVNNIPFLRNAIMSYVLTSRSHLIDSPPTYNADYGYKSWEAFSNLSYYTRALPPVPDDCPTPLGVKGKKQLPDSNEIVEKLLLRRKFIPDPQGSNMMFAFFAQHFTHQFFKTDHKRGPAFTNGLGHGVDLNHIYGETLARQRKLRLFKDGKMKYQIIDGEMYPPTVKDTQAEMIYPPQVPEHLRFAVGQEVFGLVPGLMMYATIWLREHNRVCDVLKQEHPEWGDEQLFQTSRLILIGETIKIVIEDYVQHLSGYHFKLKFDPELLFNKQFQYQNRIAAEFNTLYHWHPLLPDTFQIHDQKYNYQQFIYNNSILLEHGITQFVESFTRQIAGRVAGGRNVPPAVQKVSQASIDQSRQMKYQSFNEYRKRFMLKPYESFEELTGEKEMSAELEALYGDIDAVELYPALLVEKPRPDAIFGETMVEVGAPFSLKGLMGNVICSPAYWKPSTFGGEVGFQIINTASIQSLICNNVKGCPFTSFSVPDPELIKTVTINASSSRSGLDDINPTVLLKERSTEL
Description: as §1, §2

[1] = system: carrageenan-induced paw edema; assay: Inhibition of carrageenan-induced paw edema in the rat; format: in vivo; conditions: oral, female rats
Description: The anti-inflammatory activity of compounds of this invention was determined by measuring the inhibition of carrageenan-induced paw edema in the rat, using a modification of the method described in Winter C. A. et al., "Carrageenan-Induced Edema in Hind Paw of the Rat as an Assay for Anti-inflammatory Drugs" Proc. Soc. Exp. Biol. Med. 111, 544-547, (1962). This assay has been used as a primary in vivo screen for anti-inflammatoryactivity of most NSAIDs, and is considered predictive of human efficacy. Briefly, test materials were administered orally to female rats in a volume of 1 ml prepared as solutions or suspensions in an aqueous vehicle containing 0.9% sodium chloride, 0.5% sodium carboxymethyl-cellulose, 0.4% polysorbate 80, 0.9% benzyl alcohol and 97.3% distilled water. Control rats received vehicle alone. After 1 h 0.05 ml of a 0.5% solution of Carrageenan (Type IV Lambda, Sigma Chemical Co.) in 0.9% saline was injected into the subplantar region of the right hind paw. Three hours later the rats were euthanized in a carbon dioxide atmosphere; hind paws were removed by severing at the tatso-crural joint; and the left and right paws were weighed. The increase in weight of the right paw over the left paw was obtained for each animal and the mean increases were calculated for each group. The anti-inflammatory activity of the test materials is expressed as the percent inhibition of the increase in hind paw weight of the test group relative to the vehicle dosed control group.
The anti-inflammatory activities (expressed as % inhibition) of some of the compounds of the invention were: […]

T1 sequence (P23219 24-599): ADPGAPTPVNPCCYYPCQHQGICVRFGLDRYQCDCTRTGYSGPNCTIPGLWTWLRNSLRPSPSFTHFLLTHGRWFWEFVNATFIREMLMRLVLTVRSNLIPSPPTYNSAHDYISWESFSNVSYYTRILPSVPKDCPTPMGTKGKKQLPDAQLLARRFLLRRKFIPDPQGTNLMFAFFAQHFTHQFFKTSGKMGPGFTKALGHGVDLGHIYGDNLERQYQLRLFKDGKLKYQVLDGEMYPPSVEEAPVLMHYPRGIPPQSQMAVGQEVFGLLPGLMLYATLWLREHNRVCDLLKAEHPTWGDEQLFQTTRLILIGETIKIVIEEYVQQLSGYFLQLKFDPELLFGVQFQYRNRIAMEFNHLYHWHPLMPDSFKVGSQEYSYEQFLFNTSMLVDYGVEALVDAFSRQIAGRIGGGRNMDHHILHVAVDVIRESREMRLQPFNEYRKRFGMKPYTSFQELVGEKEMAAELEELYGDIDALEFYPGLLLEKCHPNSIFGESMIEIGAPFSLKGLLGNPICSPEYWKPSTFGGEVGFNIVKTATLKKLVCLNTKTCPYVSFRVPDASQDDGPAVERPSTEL

Row | Structure (SMILES) | IC50 (COX I) [µM] | IC50 (COX II) [µM] | % Inhibition of paw edema ([1]; 30 mg/Kg) [%] | also measured
1 | COc1ccc2c(c1)c(CC(=O)O)c(C)n2C(=O)c1ccc(Cl)cc1 [Indomethacin, reference compound] |  |  |  | % Inhibition of air pouch PGE2 formation (PGE2; 2-5 mg/Kg): > 70%; inhibition of cognitive decline of Alzheimer's patients (Alzheimer's patients): inhibit the cognitive decline of Alzheimer's patients
2 | COc1ccc2cc(S(N)(=O)=O)ccc2c1C(=O)c1ccc(F)cc1 [compound 1, 5-(4-fluorobenzoyl)-6-methoxy-2-naphthalenesulfonamide] | 20 | 0.51 |  | % Inhibition of paw edema ([1]; 10 mg/Kg): 29.94%; % Inhibition of air pouch PGE2 formation (PGE2; 10 mg/Kg): 92%
3 | COc1ccc2cc(S(N)(=O)=O)ccc2c1C(=O)c1ccc(C)cc1 [compound 4, 5-(4-methylbenzoyl)-6-methoxy-2-naphthalenesulfonamide] | 2.8 | 0.84 |  | % Inhibition of paw edema ([1]; 10 mg/Kg): 26.41%; % Inhibition of air pouch PGE2 formation (PGE2; 10 mg/Kg): 74.6%
4 | CCOc1ccc2cc(S(N)(=O)=O)ccc2c1C(=O)c1ccc(F)cc1 [compound 5] | 0.46 | 0.56 | 27.49 | 
5 | COc1ccc2cc(S(N)(=O)=O)ccc2c1C(=O)c1ccccc1F [compound 14, 5-(2-fluorobenzoyl)-6-methoxy-2-naphthalenesulfonamide] | 47.7 | 0.076 |  | % Inhibition of air pouch PGE2 formation (PGE2; 10 mg/Kg): 58.8%
6 | COc1ccc2cc(S(N)(=O)=O)ccc2c1C(=O)c1cccc(F)c1 [compound 15, 5-(3-fluorobenzoyl)-6-methoxy-2-naphthalenesulfonamide] | 62.5 | 0.68 |  | 
7 | COc1ccc2cc(S(N)(=O)=O)ccc2c1C(=O)c1ccccc1Br [compound 17] |  |  | 19.56 | 
8 | COc1ccc2cc(S(N)(=O)=O)ccc2c1C(=O)c1ccc(F)cc1F [compound 20] | 6 | 0.45 | 33.85 | % Inhibition of air pouch PGE2 formation (PGE2; 10 mg/Kg): 100%
9 | COc1ccc2cc(S(N)(=O)=O)ccc2c1C(=O)c1ccccc1 [compound 23, 5-benzoyl-6-methoxy-2-naphthalenesulfonamide] |  |  |  | % Inhibition of air pouch PGE2 formation (PGE2; 10 mg/Kg): 70.7%
10 | COc1ccc2cc(S(N)(=O)=O)ccc2c1C(=O)c1ccc(F)cc1C(F)(F)F [compound 42] | 40.9 | 2 |  | 
11 | N#Cc1ccc2cc(S(N)(=O)=O)ccc2c1C(=O)c1ccc(F)cc1 [compound 64, 5-(4-fluorobenzoyl)-6-cyano-2-naphthalenesulfonamide] | 0.9 | 0.7 |  | % Inhibition of paw edema ([1]; 6 mg/Kg): 30%; % Inhibition of air pouch PGE2 formation (PGE2; 0.5 mg/Kg): 50%
12 | Cc1ccc2cc(S(N)(=O)=O)ccc2c1C(=O)c1ccc(F)cc1 [compound 65, 5-(4-fluorobenzoyl)-6-methyl-2-naphthalenesulfonamide] | 300 | 0.7 |  | % Inhibition of paw edema ([1]; 12 mg/Kg): 30%; % Inhibition of air pouch PGE2 formation (PGE2; 2 mg/Kg): 50%
13 | NS(=O)(=O)c1ccc2c(C(=O)c3ccc(F)cc3)c(Cl)ccc2c1 [compound 66, 5-(4-fluorobenzoyl)-6-chloro-2-naphthalenesulfonamide] | 100 | 0.3 |  | % Inhibition of paw edema ([1]; 12 mg/Kg): 30%; % Inhibition of air pouch PGE2 formation (PGE2; 1 mg/Kg): 50%
14 | COc1ccc2cc(S(C)(=O)=O)ccc2c1C(=O)c1ccc(F)cc1 [compound 91, 5-(4-fluorobenzoyl)-6-methoxy-2-methylsulfonylnaphthalene] | 90.8 | 0.92 |  | % Inhibition of paw edema ([1]; 10 mg/Kg): 29.48%; % Inhibition of air pouch PGE2 formation (PGE2; 30 mg/Kg): 58.1%
15 | CS(=O)(=O)c1ccc2c(C(=O)c3ccc(F)cc3)c(O)ccc2c1 [compound 92, 5-(4-fluorobenzoyl)-6-hydroxy-2-methylsulfonylnaphthalene] | 646 | 5.9 | 19.88 | 
16 | CS(=O)(=O)c1ccc2c(C(=O)c3ccccc3)c(O)ccc2c1 [compound 93, 5-benzoyl-6-hydroxy-2-methylsulfonylnaphthalene] | 436 | 7.84 | 6.25 | 
17 | COc1ccc2cc(S(C)(=O)=O)ccc2c1C(=O)c1ccccc1 [compound 94, 5-benzoyl-6-methoxy-2-methylsulfonylnaphthalene] | 805 | 2.43 |  | % Inhibition of air pouch PGE2 formation (PGE2; 10 mg/Kg): 17.6%
18 | CS(=O)(=O)c1ccc2c(C(=O)c3ccc(F)cc3)cccc2c1 [compound 95, 5-(4-fluorobenzoyl)-2-methylsulfonylnaphthalene] | 1000 | 2.73 | 15.5 | 
19 | CS(=O)(=O)c1ccc2c(C(=O)c3ccc(F)cc3)c(C#N)ccc2c1 [compound 96, 5-(4-fluorobenzoyl)-6-cyano-2-methylsulfonylnaphthalene] | > 100 | 0.8 | 38 | % Inhibition of air pouch PGE2 formation (PGE2; 1 mg/Kg): 90%
20 | CS(=O)(=O)c1ccc2c(C(=O)c3ccccc3)c(C#N)ccc2c1 [compound 97, 5-benzoyl-6-cyano-2-methylsulfonylnaphthalene] | > 100 | 0.8 | 40 | % Inhibition of air pouch PGE2 formation (PGE2; 3 mg/Kg): 90%
21 | CS(=O)(=O)c1ccc2c(C(=O)c3ccccc3F)c(C#N)ccc2c1 [compound 99, 5-(2-fluorobenzoyl)-6-cyano-2-methylsulfonylnaphthalene] | > 100 | 0.5 |  | % Inhibition of paw edema ([1]; 10 mg/Kg): 38%; % Inhibition of air pouch PGE2 formation (PGE2; 3 mg/Kg): 86%
22 | CS(=O)(=O)c1ccc2c(C(=O)c3ccc(Cl)cc3)c(Cl)ccc2c1 [compound 100] | > 100 | 0.25 |  | % Inhibition of air pouch PGE2 formation (PGE2; 3 mg/Kg): 63%
23 | COc1ccc2cc(S(C)(=O)=O)ccc2c1C(=O)c1ccc(C)cc1 [compound 103] | 97 | 1.5 |  | 
24 | CS(=O)(=O)c1ccc2c(C(=O)c3ccc(Cl)cc3)c(C#N)ccc2c1 [compound 104, 5-(4-chlorobenzoyl)-6-cyano-2-methylsulfonylnaphthalene] | 93 | 0.57 | 33 | % Inhibition of air pouch PGE2 formation (PGE2; 1 mg/Kg): 76.5%
